Assay results reported in publication PMC3560175 (Virology Journal, 2012).

Key:
[1] = tested on: wild type VSV-G pseudotyped HIV-1 vector; test: microbe, parasite or virus in culture; format: cell-based; conditions: Human immunodeficiency virus 1, HEK-293T; 293T cells, average ± SD of two independent experiments in duplicate; read-out: Antiviral EC50 wt
[2] = tested on: Y188L RT mutant VSV-G pseudotyped HIV-1 vector; format: cell-based; conditions: read-out: Antiviral EC50 Y188L
[3] = tested on: Y181C RT mutant VSV-G pseudotyped HIV-1 vector; format: cell-based; conditions: read-out: Antiviral EC50 Y181C
[4] = tested on: V106A RT mutant VSV-G pseudotyped HIV-1 vector; format: cell-based; conditions: read-out: Antiviral EC50 V106A
[5] = tested on: K103N RT mutant VSV-G pseudotyped HIV-1 vector; format: cell-based; conditions: read-out: Antiviral EC50 K103N
[6] = in vitro; conditions: human
[7] = tested on: VSVg-pseudotyped HIV-1 vector (pNL4-3LucR+E-); test: microbe, parasite or virus in culture; format: cell-based
[8] = tested on: pLai3Luc2 HIV-1 vector; test: microbe, parasite or virus in culture; format: cell-based
[9] = tested on: HIV-1 vector (NL4-3 Nef + IRES rluc); test: microbe, parasite or virus in culture; format: cell-based
[10] = tested on: early and late HIV-1 reverse transcription products; test: Real-time PCR quantitation of early and late viral DNA in infected 293T cells; format: cell-based; conditions: 5 μM added 1 hr before infection, 24 hrs post infection
[11] = molecular target: T1, HIV-1 reverse transcriptase (RT) (Human immunodeficiency virus type 1 group M subtype B, UniProt P03366); test: biochemical
T1 construct: recombinant purified HIV-1 reverse transcriptase (RT) activity; purchased Ambion, Austin, TX

[12] = tested on: VSVg-pseudotyped HIV-1 vector; format: cell-based
[13] = tested on: PBMCs
Description: PBMCs were activated in PBMC Growth Medium (RPMI 1640 with 15% FBS, Pen/Strep, 25 mM HEPES, 100 U/ml IL-2) supplemented with 5 μg/ml PHA-P. Two days after activation, the PBMC’s were maintained in the same medium (without PHA-P) for 3 more days. Aliquots of 2x10^4 PBMCs were then plated in 80 μl PBMC Growth Medium in each well of white 96 well plates (CoStar) and returned to the incubator overnight. […] Eight replicate samples were then set up, with 10 μl aliquots of the serially-diluted compounds added to the cells, and preincubated at 37°C for one hour prior to virus challenge. The cells were then challenged with 10 μl per well of the NL4-3 Nef+ IRES rluc virus vector bringing the total volume in each well to 100 μl final. The plates were incubated at 37°C for five days and then viral infection was monitored by adding 100 μl per well of Renilla-Glo Luciferase Reagent (Promega) and measuring the resultant luciferase activities using a Topcount-HTS (PerkinElmer). Cell toxicity was assessed on a duplicate plate of samples by adding 100 μl Cell-Titer Glo Reagent (Promega) and reading on a Topcount-HTS.

Row | SMILES | EC50 [1] [nM] | EC50 [2] [nM] | EC50 [3] [nM] | EC50 [4] [nM] | EC50 [5] [nM] | CC50 [6] [nM] | decrease of luciferase activity (library screen) [7] | selectivity index [7] | EC50 ([7]; Human immunodeficiency virus 1, HEK-293T, read-out: EC50 (luciferase-based infectivity)) [nM] | selectivity index [8] | EC50 ([8]; Human immunodeficiency virus 1, CEM-GFP, 48 h) [nM] | selectivity index [9] | EC50 ([9]; Human immunodeficiency virus 1, NL43, PBMC, 120 h) [nM] | synthesis of early and late viral DNA products [10] | IC50 [11] [nM] | combination effect with AZT (isobologram) [12] | combination effect with NVP (isobologram) [12] | cell toxicity [13] | CC50 at 24 h [6] [nM]
1 | Cc1ccnc2c1NC(=O)c1cccnc1N2C1CC1 [NVP, nevirapine] | 19 ± 2 | > 20000 | 2879 ± 6 | 1260 ± 159 | 841 ± 49 | > 50000 | – | – | – | – | – | – | – | – | – | – | – | – | –
2 | Clc1ccccc1-c1nc2ccccn2c1NC1CCCCC1 [F2] | 165 ± 39 | > 20000 | 1680 ± 271 | 1280 ± 357 | 3230 ± 127 | – | more than 50% | 88.1 | 387 ± 46 | 29.5 | 862 ± 88 | > 11.6 | 865 ± 222 | blocked the synthesis of both early and late viral DNA products | 2550 ± 365 | synergy | additivity | absence of cell toxicity | –
3 | Cc1cn([C@H]2C[C@H](N=[N+]=[N-])[C@@H](CO)O2)c(=O)[nH]c1=O [AZT, 3’-azido-3’-deoxythymidine] | 14 ± 3 | 11 ± 5 | 6 | 15 ± 1 | 14 ± 2 | – | – | – | – | – | – | – | – | – | – | – | – | – | > 50000
